This is an account of results in patent US20250296953A1, “3,4-THIAZOLO-STEROIDS AND METHODS OF MAKING AND USING THE SAME” (Arkansas State University - Jonesboro, priority 2018, published 2025).

Holding throughout (type): cell-based
One data set deals with SK-MEL-5. In words: Melanoma cytotoxicity assay (resazurin). To be noted: human, 24 h. In a few lines:
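~4000 cells/well, 24 h attach, 37° C/5% CO2; cpd triplicate, 24 h; resazurin 6 h; fluor 544/590 nm. % viability vs DMSO after media-blank subtraction; IC50 from dilution series, sigmoidal fit.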
A general note: Alamar Blue is a resazurin reagent that responds to reducing activity.

A further data set deals with SK-MEL-25. As to the kind of experiment: Melanoma cytotoxicity assay (resazurin). The settings on record: for IC50: Homo sapiens; for SK-MEL-25 (% viability): human, 24 h. An outline of the steps: (§1)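 Viability read by resazurin fluorescence (ex 544, em 590 nm) after 6 h, following 24 h compound exposure of cells plated 24 h earlier (~4000/well). Triplicate means, minus medium blank, divided by DMSO control; IC50 derived from sigmoidal dose-response curves.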

A further data set relates to SK-MEL-28. In words: Melanoma cytotoxicity assay (resazurin). To be noted: for IC50: Homo sapiens, SK-MEL-28 melanoma cells; for SK-MEL-28 (% viability): human, 24 h. An outline of the steps:
as §1

A further data set concerns LOX IMVI. As to the kind of experiment: Melanoma cytotoxicity assay (resazurin). The settings on record: for IC50: Homo sapiens, LOX IMVI melanoma cells; for LOX-IMVI (% viability): human, 24 h. In a few lines: as §1
For the next data set, the system named is MALME-3M. As to the kind of experiment: Melanoma cytotoxicity assay (resazurin). The settings on record: human, 24 h. The method, then: On day 1, the cell line trypsinized and centrifuged to form cell pellet. The pellet was diluted in media, then counted using Countess automated cell counter. Approximately 4000 cells (198 uL) per well plated in […]. A control well of 200 uL growth media was also prepared. Wells closest to plate perimeter were filled with 200 uL PBS to prevent inner well evaporation. The 96 well plates are incubated in 37° C. incubator at 5% CO2 for 24 hours.
On day 2, compounds were added (in triplicate) along with DMSO/Dacarbazine controls (2 uL) added to bring wells to volume of 200 μL. The 96 well plates are incubated in 37° C. incubator at 5% CO2 for 24 hours.
On day 3, 40 μL of 0.15 mg/ml reszurin solution added to wells. Samples were placed in a 37° C. incubator at 5% CO2 for 6 hours. Excitation and emission for fluorescence measured at 544 nm and 590 nm using BMG Labtech Fluostar Optima plate reader
Percent viability determined by taking average of each triplicate well fluorescence and subtracting GM well reading to remove the background signal. This difference is then divided by the average of the negative control (DMSO) wells to determine percent viability.
IC50s were determined by using cereal dilution of compound to determine viability. Viabilities and concentration of cells are analyzed in Graphpad Prism by creating sigmoidal curve graph, which will determine the IC50 concentration.
We analyzed the ability of the thiazole-androstane derivatives to inhibit growth in various melanoma cell lines. The growth inhibition against melanoma cell lines of various compound is shown below in Tables 19 and 20. Inhibition results are reported as the IC50 concentration in μM of the indicated compound or as the percent viability […] of the indicated compound. NA=not available.

In another data set the test system is HFF-1. As to the kind of experiment: Cytotoxicity assay (resazurin). The settings on record: Homo sapiens, HFF-1 cells.
The mark [1] stands for this setting: SK-MEL-25 melanoma cells (head prints SK-25), read-out: SK-25 IC50.

Like-named read-outs stand apart in the source and are kept apart here.

The term IC50 denotes the midpoint of a concentration-inhibition curve. As to `C[C@]12CC[C@H]3[C@@H](CC=C4c5sc(Nc6ccc(F)cc6)nc5CC[C@@]43C)[C@@H]1CC[C@@H]2O` [IIIa.12, (1S,2R,13R,14S,17S,18S)-7-(4-fluoroanilino)-2,18-dimethyl-8-thia-6-azapentacyclo[11.7.0.02,10.05,9.014,18]icosa-5(9),6,10-trien-17-ol], the “SK-MEL-5 (% viability)” value in the data set on SK-MEL-5 worked out at 3.66%. The IC50 with SK-MEL-25 (setting [1]) came out at 7 µM; in the data set on SK-MEL-28, 10 µM; in the data set with LOX IMVI, 5.2 µM; with HFF-1 (read-out: HFF-1 (IC50)) it was 24 µM. The “SK-MEL-25 (% viability)” value in the data set on SK-MEL-25 was determined as 7.33%. Besides, the “SK-MEL-28 (% viability)” value in the data set on SK-MEL-28 was found to be 2.35%. For the same compound, the “LOX-IMVI (% viability)” value in the data set on LOX IMVI worked out at 12%. Also, the “MALME-3M (% viability)” value with MALME-3M amounted to 35.97%.

In the case of `C[C@]12CC[C@H]3[C@@H](CC=C4c5sc(Nc6ccc(F)cc6F)nc5CC[C@@]43C)[C@@H]1CC[C@@H]2O` [IIIa.13, (1S,2R,13R,14S,17S,18S)-7-(2,4-difluoroanilino)-2,18-dimethyl-8-thia-6-azapentacyclo[11.7.0.02,10.05,9.014,18]icosa-5(9),6,10-trien-17-ol], the “SK-MEL-5 (% viability)” value with SK-MEL-5 is reported as 4.9%. The IC50 was found to be 8 µM in the data set on SK-MEL-25 (setting [1]), 11 µM in the data set with SK-MEL-28, 6.42 µM in the data set on LOX IMVI and 25 µM in the data set on HFF-1 (read-out: HFF-1 (IC50)). For the same compound, the “SK-MEL-25 (% viability)” value in the data set on SK-MEL-25 turned out to be 8.72%. Further, the “SK-MEL-28 (% viability)” value in the data set with SK-MEL-28 was 3.92%. The “MALME-3M (% viability)” value in the data set on MALME-3M was determined as 20.83%.

As to `C[C@]12CC[C@H]3[C@@H](CC=C4c5sc(Nc6ccccn6)nc5CC[C@@]43C)[C@@H]1CC[C@@H]2O` [IIIa.24, (1S,2R,13R,14S,17S,18S)-2,18-dimethyl-7-(2-pyridylamino)-8-thia-6-azapentacyclo[11.7.0.02,10.05,9.014,18]icosa-5(9),6,10-trien-17-ol], the “SK-MEL-5 (% viability)” value in the data set with SK-MEL-5 turned out to be 2.25%. For the same compound, in the data set with SK-MEL-25, the “SK-MEL-25 (% viability)” value was found to be 1.76%. Besides, the “SK-MEL-28 (% viability)” value with SK-MEL-28 was 1.50%. In addition, the IC50 in the data set on LOX IMVI and with HFF-1 (read-out: HFF-1 (IC50)) was above 20 µM each time. In the data set on MALME-3M, the “MALME-3M (% viability)” value was determined as 10.69%.

Turning to `Cc1ccc(Nc2nc3c(s2)C2=CC[C@H]4[C@@H]5CC[C@H](O)[C@@]5(C)CC[C@@H]4[C@@]2(C)CC3)cc1` [IIIa.33, (1S,2R,13R,14S,17S,18S)-2,18-dimethyl-7-(4-methylanilino)-8-thia-6-azapentacyclo[11.7.0.02,10.05,9.014,18]icosa-5(9),6,10-trien-17-ol], in the data set with SK-MEL-5, the “SK-MEL-5 (% viability)” value is listed as 1.21%. Moreover, the half-maximal inhibitory concentration (IC50) in the data set on SK-MEL-25 (setting [1]) was 6 µM; in the data set on SK-MEL-25 (SK-MEL-25 melanoma cells, 24 hours, resazurin, read-out: SK-MEL-25 (IC50)), below 10 µM; in the data set on SK-MEL-28 it was 6 µM; in the data set on SK-MEL-28 (24 hours, resazurin), below 10 µM; with LOX IMVI it was 4.64 µM; with LOX IMVI (24 hours, resazurin) it was below 10 µM. The IC50 in the data set on HFF-1 (read-out: HFF-1 (IC50)) and with HFF-1 (read-out: IC50 in cell line HFF-1) was 13 µM in each case. The “SK-MEL-25 (% viability)” value in the data set on SK-MEL-25 is given as 7.53%. The “SK-MEL-28 (% viability)” value in the data set on SK-MEL-28 is 0.90%. The “LOX-IMVI (% viability)” value in the data set with LOX IMVI was found to be 6%. For the same compound, the “MALME-3M (% viability)” value in the data set with MALME-3M stood at 23.03%.
